Test results: ChEMBL document CHEMBL1130240, “Synthesis and structure-activity profiles of A-homoestranes, the estratropones” (J Med Chem, 1997)

Key:
Tubulin (Bos taurus) = Tubulin (Bos taurus) (UniProt Q6B856+Q862L2+Q862F3); assay: Inhibition of tubulin polymerization by colchicine to that of compound (IC50colchicine/IC50 drug); type: functional
Tubulin beta chain [1] = molecular target: T1, Tubulin beta chain (Bos taurus, UniProt Q6B856); assay: (§1) Inhibition of tubulin polymerization; type: functional
Tubulin beta chain [2] = molecular target: T1, Tubulin beta chain; assay: as §1

T1 sequence (Q6B856 whole entry): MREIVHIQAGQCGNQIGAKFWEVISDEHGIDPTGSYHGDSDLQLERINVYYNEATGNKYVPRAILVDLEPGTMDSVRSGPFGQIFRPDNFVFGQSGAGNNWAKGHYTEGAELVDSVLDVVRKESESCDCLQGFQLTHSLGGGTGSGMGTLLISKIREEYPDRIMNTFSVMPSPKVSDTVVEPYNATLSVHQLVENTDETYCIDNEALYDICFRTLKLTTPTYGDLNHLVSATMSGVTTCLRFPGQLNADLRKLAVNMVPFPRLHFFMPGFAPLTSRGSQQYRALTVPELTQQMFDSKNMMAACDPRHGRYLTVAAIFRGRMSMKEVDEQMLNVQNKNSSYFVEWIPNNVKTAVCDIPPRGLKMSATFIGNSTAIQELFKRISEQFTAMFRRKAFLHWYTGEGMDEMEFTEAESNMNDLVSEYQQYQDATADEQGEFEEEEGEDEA

| SMILES | Activity (Tubulin (Bos taurus)) | IC50 (Tubulin beta chain [1]) [µM] | IC50 (Tubulin beta chain [2]) [µM] |
| --- | --- | --- | --- |
| C[C@]12CC[C@@H]3c4ccc(=O)ccc4CC[C@H]3[C@@H]1CC[C@@H]2O | 2.5 | 4.4 | – |
| COc1cc2c(cc1O)CC[C@@H]1[C@@H]2CC[C@]2(C)[C@@H](O)CC[C@@H]12 [2-METHOXYESTRADIOL] | – | – | 14.2 |
| CCOc1cc2c(ccc1=O)[C@H]1CC[C@]3(C)[C@@H](O)CC[C@H]3[C@@H]1CC2 | – | – | 5.9 |
| COc1ccc2c(cc1=O)[C@H]1CC[C@]3(C)[C@@H](O)CC[C@H]3[C@@H]1CC2 | – | – | 27.5 |
| COc1cc2c(ccc1=O)CC[C@@H]1[C@@H]2CC[C@]2(C)[C@@H](O)CC[C@@H]12 | – | – | 29.8 |
| COc1ccc2c(cc1=O)CC[C@@H]1[C@@H]2CC[C@]2(C)[C@@H](O)CC[C@@H]12 | – | – | 8.1 |

Next, values leading:

| Activity (Tubulin (Bos taurus)) | IC50 (Tubulin beta chain [1]) [µM] | IC50 (Tubulin beta chain [2]) [µM] | SMILES |
| --- | --- | --- | --- |
| – | – | 2.1 | COc1cc2c(ccc1=O)[C@H]1CC[C@]3(C)[C@@H](O)CC[C@H]3[C@@H]1CC2 |
| 1.1 | 9.8 | – | C[C@]12CC[C@@H]3c4ccc(=O)c(Cl)cc4CC[C@H]3[C@@H]1CC[C@@H]2O |
| – | – | 7.2 | C[C@]12CC[C@@H]3c4cccc(=O)cc4CC[C@H]3[C@@H]1CC[C@@H]2O |
| – | – | 11.2 | C[C@]12CC[C@@H]3c4ccc(=O)c(Br)cc4CC[C@H]3[C@@H]1CC[C@@H]2O |
| 3.9 | 2.9 | – | C[C@]12CC[C@@H]3c4ccc(Br)c(=O)cc4CC[C@H]3[C@@H]1CC[C@@H]2O |
| 4 | 2.8 | – | C[C@]12CC[C@@H]3c4ccc(Cl)c(=O)cc4CC[C@H]3[C@@H]1CC[C@@H]2O |
